According to patent US20230203523A1, “HPPD INHIBITOR HERBICIDE TOLERANT PLANT” (priority 2021, published 2023):

How the values were obtained:
Assay type in all cases: in vivo, Sorghum bicolor
[1] = test system: grain sorghum genotype BV94-4045 (susceptible wild type); assay: Field phytotoxicity trial, aerial biomass as % of untreated control, wild type sorghum; details: BV94-4045 wild type; for Biomass % Control: field; for phytotoxicity / biomass accumulation (in words): POE, 20 days after herbicide application, 4×
Procedure: (§1) To determine the spectrum of tolerance to different HPPD herbicide site of action (SOA) active ingredients (AI) in a sorghum HPPD tolerant inbred BV10-11924 (ADV-HT2) following methodology was used.
(§2) Two grain sorghum genotypes were evaluated under field conditions with herbicide pre-emergency (PRE) and post-emergency (POE) treatments of 6 active ingredients of HPPD SOA herbicide families for sorghum crop phytotoxicity trials.
(§3) The experiment design was a split-plot design with 2 replicates where: Herbicide treatment was defined as Main plot, and Genotype as split plot. Plot size were 10 square meters each, this is 4 row/plot, 5 meters length and 0.52 meters between rows.
(§4) Both genotypes (Table 1) were sown in the Advanta R&D Station in Venado Tuerto, Argentina using an experimental planter. Wild type BV94-4045 (line used for mutagenesis in example 1) is a maintainer elite inbred line Advanta's proprietary.
(§5) All herbicide treatments (Table 2) were applied same day of sowing date for herbicide PRE treatments, and 15 days after sowing for POE treatments using an experimental sprayer in optimal weather conditions. The herbicides rates were defined as: 1×, 2× and 4×. Along with the herbicides, there were applied specific surfactant when they were recommended by the supplier for each herbicide. In all cases, 1× rate was defined based on the recommended dose in herbicide label. […]
(§6) For Aerial Biomass (Biomass) measurements, all plants from two central rows each plot were harvested by cutting them at ground level and weighted before and after drying at 60° C. for 48 h in order to determine the shoot dry mass reduction of each treatment. All data were standardized using the Aerial Biomass average as the % of Control plots. For the calculation as the percentage of its respective untreated control was used the following function:
(§7) Biomass % Control=(Biomassgh/Biomassg Control)*100
(§8) where “Biomass % Control” is the Aerial Biomass expressed as percent of each genotype in the Control plot without any herbicide application (Table 3); “Biomassgh” is the Aerial Biomass is the mean for each genotype*herbicide treatment combination and “Biomassg Control” is the Aerial Biomass mean for each genotype in the treatment CONTROL (untreated).

[2] = test system: M3 sorghum plants of furrow VT09-8800 (BV94-4045EMS1-256-2, ADV-HT2); assay: Herbicide spray selection of EMS-mutagenised M3 sorghum progeny; details: sprayed with 33.6 ml active ingredient/ha; six M3 plants of furrow VT09-8800
Procedure: In order to obtain herbicide-tolerant plants, endogamic sorghum (Sorghum bicolor) line BV94-4045 (Advanta proprietary elite line) seeds were treated with an aqueous solution of ethyl methanesulfonate (EMS). Treated seeds were planted and self-pollinated for advancing generation. Eight hundred nighty five M1 plants were selected, and two seeds of each plant were planted in a nursery, thereby obtaining a total of 1790 M2 plants. Pollen from both plants of each pair were collected, and the bulk was used for pollinating both plants of the pair. A bulk of M3 seeds from each pair was obtained from the 895 pollinated M2 pairs of plants. A total of 895 furrows were planted with the M3 progeny. Fifty plants from each M3 furrow were sprayed with 33.6 ml active ingredient /ha of topramezone. […] The genealogy of the resistant plants from the furrows was identified and they were designated BV94-4045EMS1-256-2 (hereinafter referred to as ADV-HT2). Herbicide tolerant M7 mutant plants and seeds selected from the original ADV-HT2 mutant, designated as: Material ID=VT10-11924-1-BK and Inbred Code=BV10-11924, were obtained and deposited with the NCIMB collection with Access No. NCIMB 43919 under the terms of the Budapest Treaty,
Thirty-two thousand pre-germinated sorghum seeds from endogamic line BV94-4045 were dipped into an aqueous solution of 0.05% v/v ethyl methanesulfonate (EMS) for 16 hours. […]

[3] = test system: grain sorghum genotype BV10-11924 (mutant ADV-HT2); assay: Field phytotoxicity trial, aerial biomass as % of untreated control, mutant ADV-HT2 sorghum; details: for Biomass % Control: field
Procedure: as §1, §2, §3, §4, §5, §6, §7, §8

[4] = POE application (15 days after sowing), 1X = label recommended rate
[5] = POE, 20 days after herbicide application, rates 1×, 2×, and 4×
[6] = PRE application (day of sowing), 1X = label recommended rate
[7] = PRE, 1× rate, 20 days after the application

| SMILES | Biomass % Control [1, 4] [%] | Biomass % Control ([1]; POE application, 2X label rate) [%] | Biomass % Control ([1]; POE application, 4X label rate) [%] | phytotoxicity / biomass accumulation (in words) ([1]; rates 1×, 2×) | plant growth and symptoms after treatment with herbicide (in words) [2] | Biomass % Control [3, 4] [%] | Biomass % Control ([3]; POE application, 2X label rate) [%] | Biomass % Control ([3]; POE application, 4X label rate) [%] | phytotoxicity / biomass accumulation (in words) [3, 5] | Biomass % Control [1, 6] [%] | Biomass % Control ([1]; PRE application, 2X label rate) [%] | Biomass % Control ([1]; PRE application, 4X label rate) [%] | Biomass % Control [3, 6] [%] | Biomass % Control ([3]; PRE application, 2X label rate) [%] | Biomass % Control ([3]; PRE application, 4X label rate) [%] | phytotoxicity / biomass accumulation (in words) [3, 7] | phytotoxicity / biomass accumulation (in words) ([1]; rates 2×) |
| --- | --- | --- | --- | --- | --- | --- | --- | --- | --- | --- | --- | --- | --- | --- | --- | --- | --- |
| Cc1c(C(=O)c2cnn(C)c2O)ccc(S(C)(=O)=O)c1C1=NOCC1 [TOP, TOPRAMEZONE] | 77 | 51 | 39 | significant reduction in the biomass accumulation | normal growth and absence of symptoms | 126 | 107 | 117 | tolerant without phytotoxicity nor reduction in the biomass accumulation |  |  |  |  |  |  |  |  |
| COCCOCc1nc(C(F)(F)F)ccc1C(=O)C1=C(O)C2CCC(C2)C1=O (stereo not drawn) [BYC, BICYCLOPIRONA] |  |  |  |  |  |  |  |  |  | 65 | 10 | 1 | 127 | 46 | 15 | no significative reduction in biomass accumulation |  |
| CS(=O)(=O)c1ccc(C(=O)C2C(=O)CCCC2=O)c([N+](=O)[O-])c1 [MES, MESOTRIONE] | 108 | 32 | 13 |  |  | 146 | 106 | 84 | tolerant without phytotoxicity nor reduction in the biomass accumulation |  |  |  |  |  |  |  | significant reduction in the biomass accumulation |
| CS(=O)(=O)c1cc(C(F)(F)F)ccc1C(=O)c1cnoc1C1CC1 [ISO, ISOXAFLUTOLE] |  |  |  |  |  |  |  |  |  | 63 | 28 | 10 | 84 | 68 | 38 | no significative reduction in biomass accumulation |  |
| CCn1ncc(C(=O)c2ccc(S(C)(=O)=O)c(OCCOC)c2C)c1OC(C)OC(=O)OC (stereo not drawn) [TOL, TOLPYRALATE] | 76 | 60 | 64 | significant reduction in the biomass accumulation |  | 117 | 92 | 127 | tolerant without phytotoxicity nor reduction in the biomass accumulation |  |  |  |  |  |  |  |  |
